From PMC3495945, “Org 214007-0: A Novel Non-Steroidal Selective Glucocorticoid Receptor Modulator with Full Anti-Inflammatory Properties and Improved Therapeutic Index” (PLoS ONE, 2012)

Tests used:
[1] = target: T1, human chimeric glucocorticoid-mineralocorticoid receptor (GGM) (Homo sapiens, UniProt P04150+P08235, G607S/G671E/L660Y/Q661R/V618L); assay: CHO steroid receptor reporter assay, MR (GGM) / MMTV-Luc; assay type: cell-based
T1 construct: glucocorticoid receptor part of the chimera (human NR3C1, P04150); expressed in transfected cells; host or cells: CHO K1
T1 sequence (P04150+P08235 with tags, fused parts or gaps P08235:G607S/P08235:V618L/P08235:L660Y/P08235:Q661R/P08235:G671E): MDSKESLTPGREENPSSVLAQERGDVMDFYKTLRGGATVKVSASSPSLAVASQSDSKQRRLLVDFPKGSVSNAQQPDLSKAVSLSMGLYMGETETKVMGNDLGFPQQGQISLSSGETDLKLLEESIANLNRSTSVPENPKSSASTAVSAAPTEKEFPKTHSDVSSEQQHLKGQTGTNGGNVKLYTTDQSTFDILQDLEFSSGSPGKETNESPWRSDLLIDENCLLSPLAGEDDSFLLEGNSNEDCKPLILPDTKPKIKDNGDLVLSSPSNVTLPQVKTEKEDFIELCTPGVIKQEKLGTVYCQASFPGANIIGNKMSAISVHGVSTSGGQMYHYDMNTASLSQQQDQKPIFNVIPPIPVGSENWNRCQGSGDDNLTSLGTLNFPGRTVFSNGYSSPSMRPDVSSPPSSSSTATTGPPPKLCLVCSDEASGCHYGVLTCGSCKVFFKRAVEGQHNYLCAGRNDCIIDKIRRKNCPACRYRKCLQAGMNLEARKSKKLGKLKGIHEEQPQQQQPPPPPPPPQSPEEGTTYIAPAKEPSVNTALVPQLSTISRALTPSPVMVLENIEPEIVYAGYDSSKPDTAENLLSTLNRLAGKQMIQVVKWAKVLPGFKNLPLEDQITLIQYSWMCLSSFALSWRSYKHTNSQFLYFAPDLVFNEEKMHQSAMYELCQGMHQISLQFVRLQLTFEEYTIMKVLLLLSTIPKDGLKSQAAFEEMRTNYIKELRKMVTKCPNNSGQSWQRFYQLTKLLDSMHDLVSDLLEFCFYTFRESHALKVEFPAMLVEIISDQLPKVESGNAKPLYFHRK
From the text: For monitoring both human steroid receptor agonistic as well as antagonistic activity of compounds, Chinese hamster ovary (CHO) K1 cells stably co-transfected with the specific human steroid receptor and its respective reporter construct were used (as previously described).
For human glucocorticoid receptor (GR)-specific activity CHO-GR B4.8 cells containing both recombinant human GR as well as a reporter construct consisting of the mouse mammary tumor virus (MMTV) promotor and the luciferase reporter gene, were used. Compound was incubated alone (in the agonistic setup) or with 50 nM dexamethasone (in the antagonistic setup) overnight. Hereafter, 200 µl medium was removed and 50 µl luciferine substrate solution from the LucLite luminescence kit (Packard, Meriden, USA) was added. […] Percentage maximal antagonistic efficacy was related to the maximal antagonistic efficacy of reference GR antagonist Org 34116. Similar procedures were followed for the other human steroid receptor assays (for more detailed information see Supportive Information) (SI text).
Similar procedures were followed for the other human steroid receptor assays containing combinations of human progesterone receptor B (PR-B) and MMTV-Luc, human androgen receptor (AR) and MMTV-Luc, human chimeric glucocorticoid-mineralocorticoid receptor (GGM, Trapp et al. (1994), Neuron 13: 1457) and MMTV-Luc, human estrogen receptor alpha (ERα) and rat oxytocin-Luc (45), and human estrogen receptor beta (ERβ) and rat oxytocin-Luc, respectively.

[2] = test system: endometrium in estrogen-primed immature rabbits; assay: McPhail test (agonistic, progestational activity); assay type: in vivo, rabbit; conditions: 0-4 scale; 5 days; MPA 0.05 mg/kg/day, Org 214007-0 0.5 mg/kg/day; n=2
Method: The McPhail (or anti-McPhail) test was used to evaluate potential progestational (or anti-progestational) activity of Org 214007-0 on the endometrium in estrogen-primed immature rabbits after once-daily administration. The female NZW rabbits were housed in pairs in a light- and temperature-controlled room, fed daily with 40 - 50 g standard pelleted food and with free access to tap-water. Before treatment with compounds rabbits were primed daily in the morning with a subcutaneous dose of 2 μg estradiol benzoate for 8 days. […] Transverse sections were prepared, stained with haematoxylin-eosin and evaluated microscopically. Endometrial development was scored on a 0-4 scale as follows: score 0: no development of glands; score 1: start of development of glands; score 2: clear-cut development of glands with ducts beginning to branch; score 3: about 2/3 of stroma bearing glandual tissue; score 4: more than 2/3 of stroma bearing glandular tissue. A score of 2 or higher in both rabbits was evaluated as a positive resonse.
For both the agonistic and antagonistic test immature female NZW rabbits (n=2 per treatment group) were primed with estrogen. […] One day after the last treatment the uterus was dissected and endometrial development was scored on a 0-4 scale. […]

[3] = test system: endometrium in estrogen-primed immature rabbits; assay: anti-McPhail test (antagonistic, anti-progestational activity); assay type: in vivo, rabbit; conditions: 0-4 scale; 7 days with progesterone; RU486 4 mg/kg/day, Org 214007-0 0.5 mg/kg/day oral; n=2
Method: For the anti-McPhail test, the estrogen-primed rabbits were subsequently treated for 7 days with inducer progesterone (0.25 mg/kg/day s.c.) in combination with an oral treatment of either placebo, reference RU486 (4 mg/kg/day) or Org 214007-0 (0.5 mg/kg/day). The uterus preparation and evaluation of the endometrium was performed as described above.
For the antagonistic test, after oestrogen priming, rabbits were treated for 7 days with progesterone and placebo, reference RU486 or Org 214007-0. One day after the last treatment the uterus was dissected and endometrial development was scored on a 0-4 scale. […] After treatment with Org 214007-0 no reduction of the endometrial transformation was observed (score 3.31), indicative for no anti-progestagenic activity

Cc1nnsc1C(=O)N[C@H]1CCN2c3ccc(C#N)cc3[C@@H](C)c3ccccc3[C@@H]2C1 [Org 214007-0]
Emax ([1]; read-out: % efficacy (antagonist)): > 40% | EC50 ([1]; read-out: EC50 (agonist)): > 1 µM | IC50 ([1]; read-out: IC50 (antagonist)): > 1.26 µM | % agonist potency ([1]; relative to reference compound): <0.1% | % antagonist potency ([1]; relative to reference compound): <1.27% | endometrial development score, agonistic test [2]: 0.5 | endometrial development score, antagonistic test [3]: 3.31
